In patent US12102685B2, “Immodulator peptides covalently modified with small molecules” (priority 2020, dated 2024):
Peptide text beside a SMILES is read from it.

How the values were obtained:
[1] = Iron-binding competition assay with labeled IM3AVD (x2E d); settings: labeled IM3AVD plus 10x unlabeled peptide; no competing peptide = 100
Experimental: (§1) Experiments were conducted by the procedure described above. Ferric iron-charged NTA-coated 96-well plates were used as described. 1 ug/well immodulator peptide complexed to Alexa-488-labeled streptavidin in PBS buffer was added (60 min at room temperature). The plate was washed and counted in a standard fluorometer (excitation/emission: 485/525 nm). The results (fluorescence) show improved iron-binding by the three peptides extended C-terminally by the AVD, (dA)VD, and FVS tripeptides. **p<0.01 vs IM3 control IM3: 200±29; IM4: 45±37**; IM5: 130±77; IM3AVD: 434±29**; IM3dAVD: 418±28**; IM3FVS: 371±33** • (c) Competition assay. The same procedure was used as the preceding experiment, except that 375 ng/well labeled IM3 peptide was used, plus 10× of the indicated unlabeled peptide. ‘No competing peptide’ control value was set to 100. *p<0.05 vs “no peptide” control Competing Peptide/Fluorescence • None: 100±38; IM4: 125±26; IM3: 63±27*; IM5: 40±14*; IM3AVD: 10±28* • (d) Competition assay. The same procedure was used as the preceding experiment, except that labeled IM3AVD peptide was used. **p<0.01 vs “no competing peptide” control • None: 100±9; IM4: 144±44; IM3: 35±16**; IM5: 30±19**; IM3AVD: 9±19** • (e) The same procedure was used as the preceding experiment, except that each peptide was labeled with Alexa-488-labeled streptavidin in PBS buffer and used separately. Binding to IM3 was set to =100. *p<0.05, **p<0.01 vs IM3 control. (Labeled Peptide/Fluorescence) IM1: 1.8±0.4**; IM2: 3.0±1.8**; IM3: 100.0±16.8; IM4: 7.2±1.7*; IM5: 86.7±6.4; IM6: 85.9±14.9; IM3AVD:137.7±11.8*; IM3dAVD:147.4±22.9*; IM3FVS: 101.5±10.5.

[2] = Strength of binding to iron, plate assay (x2E b); settings: 1 ug/well peptide complexed to Alexa-488-streptavidin; ferric iron
Experimental: Immodulator peptides were extended C-terminally by three amino acids, to include a valine residue that is highly conserved in the “thyroglobulin type 1 motif”. The reasoning behind this attempt is that a longer conserved sequence might lead to a tighter fold overall, which might in turn result in increased metal-binding avidity. • (b) Strength of binding to iron was evaluated by plate assay.
as §1

[3] = Binding to heparin-agarose spin column (x3D); settings: 1 ug SA488-labelled peptide
Experimental: 1 ug Streptavidin-Alexa 488 conjugate (SA488)-labelled IM peptide in PBS buffer was loaded on a spin column packed with 0.2 ml bed volume heparin-agarose (G-Biosciences, St. Louis, MO). The column was centrifuged for 2 min at 2,000 G and the flow-through was collected. The column was then washed with 0.3 ml 1% BSA in PBS buffer and the column spin repeated. Flowthrough and wash were pooled and duplicate 20 uL aliquots counted in a standard fluorometer (excitation/emission 485/525 nm). Results are expressed as percentage of input counts that bound the heparin-agarose column, versus flowthrough. Percent counts bound to heparin-agarose resin are shown below. IM3, IM5 and IM6 peptides bind heparin-agarose in this assay.

[4] = Binding to Echelon PPI Arrays (x9B); design: key: 0=no binding; 1=low binding; 2=medium binding; 3=high binding; settings: 100 pmol PPI spot, colorimetric readout
From the text: Binding of immodulator peptides to Echelon PPI Arrays. PPI arrays were purchased from Echelon Biosciences (Sal Lake City, UT) and used according to the manufacturer's recommendations. Colorimetric readout from each 100 pmol PPI spot in the array is expressed as 0=no binding, 1=low binding, 2=medium binding and 3=high binding. […] In addition, IM3 and IM5 show slight binding to PI(3,4,5)P3.

[5] = tested on: COL1 in HFF-1 dermal fibroblasts; experiment: Collagen-1 ELISA in HFF-1 dermal fibroblasts (x11A); assay type: cell-based; settings: peptide 2 uM, 72 hour; control (buffer) = 100
Experimental: Immune modulation functions of immodulator peptides have potential untility in the field of cosmetics. HFF-1 cell line was obtained from American Type Culture Collection (ATCC). Cells were grown in a T-75 flask in DMEM Medium containing 10% fetal bovine serum and penicillin-streptomycin at 37° C. in a humidified, 5% CO2 incubator. Cells ([…], 2,000 cells/well) were plated in a 96-well plate and incubated overnight at 37° C. in a humidified, 5% CO2 incubator. Next day, […] of compounds were added (quadruplicate wells). After 72 hour incubation with the compound, supernatants were collected for Collagen-1 ELISA assay and cell viability was measured in a luminometer after the addition of […] CellTiterGlo reagent (Promega Inc, Madison, WI) as recommended by the manufacturer.
Collagen stimulating activity of immodulator peptides in HFF-1 dermal fibroblasts. Peptides were added to cells at 2 uM. COL1 immunoreactivity was measured in the supernatants of cultured cells by ELISA using a rabbit monoclonal anti-COL1 primary antibody (Abcam, Cambridge, MA). Control (buffer) value of immunoreactivity was set to 100.

[6] = FITC-PI(4)P1 binding to plate-bound peptide with calcium (x9A)
Experimental: Immodulator peptides IM1, IM3 and IM5 (400 ng/well) in PBS were bound to streptavidin-coated 96-well plates at room temperature for 60 minutes, in the presence or absence of 500 uM calcium chloride. Each well also received 200 ng cold PPI plus 10 ng FITC-labeled PI(4,5)P2 or PI(4)P1. The tables below show the relative fluorescence (with/without calcium background) expressed as a percentage of the highest binder, FITC-PI(4,5)P2+cold PI(3,5)P2, which was 2,496 fluorescence units. Background binding without calcium was, in all cases, 200-300 fluorescence units.

CC[C@H](C)[C@H](NC(=O)CNC(=O)[C@H](CCCNC(=N)N)NC(=O)[C@H](CCCCN)NC(=O)[C@H](CCCNC(=N)N)NC(=O)CNC(=O)[C@H](CCCNC(=N)N)NC(=O)[C@H](CO)NC(=O)[C@@H]1CCCN1C(=O)[C@H](CCCCN)NC(=O)[C@H](CS)NC(=O)[C@H](CCC(N)=O)NC(=O)[C@H](CCCCN)NC(=O)[C@H](CCCNC(=N)N)NC(=O)[C@H](CCCCN)NC(=O)[C@H](Cc1ccc(O)cc1)NC(=O)[C@H](Cc1ccccc1)NC(=O)CNC(=O)[C@H](CCCCN)NC(=O)[C@@H](N)CCCNC(=N)N)C(=O)N[C@@H](CS)C(=O)N[C@@H](Cc1c[nH]c2ccccc12)C(=O)O [IM5] (H-RKGFYKRKQCKPSRGRKRGICW-OH; N-terminus and C-terminus assumed)
fluorescence of labeled IM3AVD with competing peptide [1]: 30±19 | fluorescence (iron binding) [2]: 130±77 | Percent Flowthrough [3]: 3.6% | Percent retained [3]: 96.4% | binding to PI spot [4]: 0 | binding to PI(3,4,5)P3 spot [4]: 1 | binding to PI(4)P1 spot [4]: 2 | binding to PI(4,5)P2 spot [4]: 3 | COL1 immunoreactivity in supernatant [5]: 93 | relative fluorescence, FITC-PI(4)P1 bound ([6]; cold PPI: 3,4,5-P3): 1.2 percentage of the highest binder | relative fluorescence, FITC-PI(4)P1 bound ([6]; cold PPI: 3,4-P2): 1.7 percentage of the highest binder | relative fluorescence, FITC-PI(4)P1 bound ([6]; cold PPI: 3,5-P2): 1.3 percentage of the highest binder | relative fluorescence, FITC-PI(4)P1 bound ([6]; cold PPI: 3-P1): 0.9 percentage of the highest binder | relative fluorescence, FITC-PI(4)P1 bound ([6]; cold PPI: 4,5-P2): 1.8 percentage of the highest binder | relative fluorescence, FITC-PI(4)P1 bound ([6]; cold PPI: 4-P1): 0.8 percentage of the highest binder | relative fluorescence, FITC-PI(4)P1 bound ([6]; cold PPI: 5-P1): 0.4 percentage of the highest binder | relative fluorescence, FITC-PI(4)P1 bound ([6]; cold PPI: None): 2.1 percentage of the highest binder

CC(C)C[C@H](NC(=O)[C@H](C)NC(=O)[C@@H]1CCCN1C(=O)[C@H](Cc1c[nH]cn1)NC(=O)[C@H](CS)NC(=O)[C@H](CCC(N)=O)NC(=O)[C@H](CCCCN)NC(=O)[C@@H]1CCCN1C(=O)[C@H](Cc1c[nH]cn1)NC(=O)[C@H](Cc1ccccc1)NC(=O)[C@H](CC(N)=O)NC(=O)CNC(=O)[C@H](CC(N)=O)NC(=O)[C@@H](N)CCCNC(=N)N)C(=O)N[C@@H](CC(=O)O)C(=O)NCC(=O)N[C@@H](CCC(N)=O)C(=O)N[C@@H](CCCNC(=N)N)C(=O)NCC(=O)N[C@@H](CCCCN)C(=O)N[C@@H](CS)C(=O)N[C@@H](Cc1c[nH]c2ccccc12)C(=O)O [IM4] (H-RNGNFHPKQCHPALDGQRGKCW-OH; N-terminus and C-terminus assumed)
fluorescence of labeled IM3AVD with competing peptide [1]: 144±44 | fluorescence (iron binding) [2]: 45±37 | Percent Flowthrough [3]: 100.0% | Percent retained [3]: 0% | binding to PI spot [4]: 0 | binding to PI(3,4,5)P3 spot [4]: 0 | binding to PI(4)P1 spot [4]: 0 | binding to PI(4,5)P2 spot [4]: 0 | COL1 immunoreactivity in supernatant [5]: 105

CSCC[C@H](NC(=O)[C@H](CCCCN)NC(=O)[C@H](CS)NC(=O)[C@H](CCC(N)=O)NC(=O)[C@H](CCCCN)NC(=O)[C@H](CC(C)C)NC(=O)[C@H](CC(N)=O)NC(=O)[C@H](Cc1ccc(O)cc1)NC(=O)[C@H](CC(C)C)NC(=O)CNC(=O)[C@H](Cc1c[nH]cn1)NC(=O)[C@@H](N)CCCCN)C(=O)N[C@@H](CO)C(=O)N[C@@H](CC(C)C)C(=O)N[C@@H](CC(N)=O)C(=O)NCC(=O)N[C@@H](CCC(N)=O)C(=O)N[C@@H](CCCNC(=N)N)C(=O)NCC(=O)N[C@@H](CCC(=O)O)C(=O)N[C@@H](CS)C(=O)N[C@@H](Cc1c[nH]c2ccccc12)C(=O)O [IM2]
Percent Flowthrough [3]: 100.0% | Percent retained [3]: 0% | binding to PI spot [4]: 0 | binding to PI(3,4,5)P3 spot [4]: 0 | binding to PI(4)P1 spot [4]: 0 | binding to PI(4,5)P2 spot [4]: 0 | COL1 immunoreactivity in supernatant [5]: 109

CSCC[C@H](NC(=O)[C@H](CO)NC(=O)[C@@H](NC(=O)[C@H](CCC(=O)O)NC(=O)[C@H](CS)NC(=O)[C@H](CCC(N)=O)NC(=O)[C@H](CCCNC(=N)N)NC(=O)[C@H](CO)NC(=O)[C@H](Cc1c[nH]cn1)NC(=O)[C@H](Cc1ccc(O)cc1)NC(=O)[C@H](Cc1ccccc1)NC(=O)CNC(=O)[C@H](CC(N)=O)NC(=O)[C@@H](N)CCCCN)[C@@H](C)O)C(=O)N[C@@H](CC(=O)O)C(=O)NCC(=O)N[C@@H](CCC(=O)O)C(=O)N[C@@H](C)C(=O)NCC(=O)N[C@@H](CC(C)C)C(=O)N[C@@H](CS)C(=O)N[C@@H](Cc1c[nH]c2ccccc12)C(=O)O [IM1] (H-KNGFYHSRQCETSMDGEAGLCW-OH; N-terminus and C-terminus assumed)
Percent Flowthrough [3]: 100.0% | Percent retained [3]: 0% | binding to PI spot [4]: 0 | binding to PI(3,4,5)P3 spot [4]: 0 | binding to PI(4)P1 spot [4]: 0 | binding to PI(4,5)P2 spot [4]: 0 | COL1 immunoreactivity in supernatant [5]: 98 | relative fluorescence, FITC-PI(4)P1 bound ([6]; cold PPI: 3,4,5-P3): 0.1 percentage of the highest binder | relative fluorescence, FITC-PI(4)P1 bound ([6]; cold PPI: 3,4-P2): 2.6 percentage of the highest binder | relative fluorescence, FITC-PI(4)P1 bound ([6]; cold PPI: 3,5-P2): 4.3 percentage of the highest binder | relative fluorescence, FITC-PI(4)P1 bound ([6]; cold PPI: 3-P1): 3.1 percentage of the highest binder | relative fluorescence, FITC-PI(4)P1 bound ([6]; cold PPI: 4,5-P2): 0.8 percentage of the highest binder | relative fluorescence, FITC-PI(4)P1 bound ([6]; cold PPI: 4-P1): 2.7 percentage of the highest binder | relative fluorescence, FITC-PI(4)P1 bound ([6]; cold PPI: 5-P1): 0.5 percentage of the highest binder | relative fluorescence, FITC-PI(4)P1 bound ([6]; cold PPI: None): 1.6 percentage of the highest binder
